Experimental data as given in US6369074B1, “Aminomethylene substituted non-aromatic heterocycles and use as substance P antagonists” (Pfizer Inc., priority 1992, dated 2002).
Where a name gives a salt, the structure may show the parent alone.

melting point | SMILES
217 °C (dec.) | COc1ccc(-n2c(C)ccc2C)cc1CN[C@H]1CCCN[C@H]1c1ccccc1 (as salt: hydrochloride) [Example 19, (2S,3S)-[5-(2,5-Dimethylpyrrol-1-yl)-2-methoxybenzyl]-(2-phenylpiperidin-3-yl) amine]
240 to 244 °C | COc1ccc2c(C)c(C)sc2c1CN[C@H]1CCCN[C@H]1c1ccccc1.Cl.Cl.O (hydrate or solvate)
